Measured values reported in ChEMBL document CHEMBL1201861, “Genomics of Drug Sensitity in Cancer screening data, Wellcome Trust Sanger Institute”.
Several values for one entry are separate records, joined by “and”; a condition that tells them apart may be missing. Identical values can stand only once. Where a SMILES comes first, the peptide text is derived from it. The star is where a group is joined. Cbz = O=C(OCc1ccccc1)*

Columns and labels:
Assay in all cases: cells
COLO-800 = type: functional, cell-based, Homo sapiens;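 note: growth inhibition of COLO-800 cells, read out with a cell viability assay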
COLO-824 = type: functional, cell-based, Homo sapiens
CTB-1 = type: functional, cell-based, Homo sapiens
CW-2 = type: functional, cell-based, Homo sapiens;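 note: growth inhibition of CW-2 cells, read out by a cell viability assay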
DB = type: functional, cell-based, Homo sapiens
DMS-114 = type: functional, cell-based, Homo sapiens
DOHH-2 = type: functional, cell-based, Homo sapiens;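 note: growth inhibition of human DOHH-2 cells, read out with a cell viability assay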
EM-2 = type: functional, cell-based, Homo sapiens; details: em-2;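 note: growth inhibition of EM-2 cells, read out with a cell viability assay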
ES7 = type: functional, cell-based, Homo sapiens;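 note: growth inhibition of cultured human ES7 cells, read out as cell viability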
EW-1 = type: functional, cell-based, Homo sapiens;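 note: growth inhibition of the human EW-1 cell line, read out by a cell viability assay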
GI-1 = type: functional, cell-based, Homo sapiens;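 note: growth inhibition of human GI-1 cells, measured with a cell viability readout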
GOTO = type: functional, cell-based, Homo sapiens;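 note: growth inhibition of GOTO cells, read out by a cell viability assay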
GR-ST = type: functional, cell-based, Homo sapiens
HT = type: functional, cell-based, Homo sapiens
IST-MES1 = type: functional, cell-based, Homo sapiens;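 note: growth inhibition of IST-MES1 cells, measured with a cell viability assay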
K5 = type: functional, cell-based, Homo sapiens
KINGS-1 = type: functional, cell-based, Homo sapiens;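 note: cell viability assay measuring suppression of KINGS-1 cell growth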
KNS-81-FD = type: functional, cell-based, Homo sapiens;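 note: growth inhibition of KNS-81-FD cells, read out with a cell viability assay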
ML-2 = type: functional, cell-based, Homo sapiens;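 note: growth inhibition of ML-2 cells, measured with a cell viability readout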
MOLT-16 = type: functional, cell-based, Homo sapiens;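 note: growth inhibition of human MOLT-16 cells, read out with a cell viability assay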
MSTO-211H = type: functional, cell-based, Homo sapiens
MZ1-PC = type: functional, cell-based, Homo sapiens;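 note: cell viability assay measuring growth inhibition of human MZ1-PC cells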
MZ2-MEL = type: functional, cell-based, Homo sapiens;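 note: growth inhibition of MZ2-MEL cells read out with a cell viability assay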
NB6 = type: functional, cell-based, Homo sapiens
NB69 = type: functional, cell-based, Homo sapiens;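 note: growth inhibition of NB69 cells, determined by a cell viability assay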
NCI-H1155 = type: functional, cell-based, Homo sapiens;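 note: cell growth inhibition measured by a viability assay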
NCI-H1299 = type: functional, cell-based; details: Homo sapiens;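 note: growth inhibition of human NCI-H1299 cells, read out by a cell viability assay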
NCI-H1581 = type: functional, cell-based, Homo sapiens;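 note: cell growth inhibition read out by a viability assay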
NCI-H1838 = type: functional, cell-based, Homo sapiens;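 note: growth inhibition of NCI-H1838 cells, determined with a cell viability readout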
NH-12 = type: functional, cell-based, Homo sapiens;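 note: growth inhibition of NH-12 cells, read out with a cell viability assay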
NMC-G1 = type: functional, cell-based, Homo sapiens;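 note: growth inhibition of the NMC-G1 cell line, measured with a cell viability read-out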
NOS-1 = type: functional, cell-based, Homo sapiens;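 note: growth inhibition of the human NOS-1 cell line, read out with a cell viability assay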
NTERA-2-cl-D1 = type: functional, cell-based, Homo sapiens;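 note: inhibition of cell growth, measured with a cell viability assay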
OCI-AML2 = type: functional, cell-based, Homo sapiens;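 note: growth inhibition of OCI-AML2 cells, read out with a cell viability assay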
ONS-76 = type: functional, cell-based, Homo sapiens;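 note: growth inhibition of human ONS-76 cells, read out with a cell viability assay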
RH-1 = type: functional, cell-based, Homo sapiens;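 note: growth inhibition of human RH-1 cells, read out with a cell viability assay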
Ramos-2G6-4C10 = type: functional, cell-based, Homo sapiens;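 note: growth inhibition of the cell line, measured by a cell viability read-out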
SBC-1 = type: functional, cell-based, Homo sapiens;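 note: cell viability assay measuring growth inhibition of the SBC-1 cell line, IC50 being the concentration that halves growth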
SF-268 = type: functional, cell-based, Homo sapiens;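 note: growth inhibition of SF-268 cells determined with a cell viability assay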
SK-NEP-1 = type: functional, cell-based, Homo sapiens;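 note: growth inhibition of human SK-NEP-1 cells, read out by a cell viability assay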
A101D = type: functional, cell-based, Homo sapiens;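 note: growth inhibition of the cell line, measured with a viability assay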
BV-173 = type: functional, cell-based, Homo sapiens
TE-10 = type: functional, cell-based, Homo sapiens;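 note: growth inhibition of TE-10 cells, measured by a cell viability assay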
TE-6 = type: functional, cell-based, Homo sapiens;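 note: growth inhibition of TE-6 cells, read out with a cell viability assay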
TE-9 = type: functional, cell-based, Homo sapiens;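 note: cell growth inhibition, measured with a cell viability readout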
TGW = type: functional, cell-based, Homo sapiens;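 note: growth inhibition of human TGW cells, read out with a cell viability assay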
UACC-257 = type: functional, cell-based, Homo sapiens
no-11 = type: functional, cell-based, Homo sapiens;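 note: growth inhibition of human NO-11 cells, read out with a cell viability assay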
COLO-668 = type: functional, cell-based, Homo sapiens
LB2518-MEL = type: functional, cell-based; details: Homo sapiens;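 note: growth inhibition of human LB2518-MEL cells, measured with a cell viability assay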

CC(C)C[C@@H](C=O)NC(=O)[C@H](CC(C)C)NC(=O)[C@H](CC(C)C)NC(=O)OCc1ccccc1 [MG-132] (Cbz-Leu-Leu-Leu-aldehyde)
IC50 (COLO-800; colo-800): > 1000 nM
IC50 (COLO-824; colo-824): > 1000 nM
IC50 (CTB-1; ctb-1): 780 nM and > 1000 nM
IC50 (CW-2; cw-2): > 1000 nM
IC50 (DB; db): > 1000 nM
IC50 (DMS-114; dms-114): > 1000 nM
IC50 (DOHH-2; dohh-2): > 1000 nM
IC50 (EM-2): > 1000 nM and 878 nM
IC50 (ES7; es7): 897 nM and > 1000 nM
IC50 (EW-1; ew-1): 210 nM and > 1000 nM
IC50 (GI-1; gi-1): > 1000 nM
IC50 (GOTO; Homo sapiens, GOTO): > 1000 nM
IC50 (GOTO; goto): > 1000 nM
IC50 (GR-ST; gr-st): > 1000 nM
IC50 (HT; ht): > 1000 nM
IC50 (IST-MES1; ist-mes1): > 1000 nM
IC50 (K5; k5): > 1000 nM
IC50 (KINGS-1; kings-1): 148 nM and 628 nM
IC50 (KNS-81-FD; kns-81-fd): 303 nM and > 1000 nM
IC50 (ML-2; ml-2): 118 nM and 473 nM
IC50 (MOLT-16; molt-16): 295 nM and > 1000 nM
IC50 (MSTO-211H; msto-211h): > 1000 nM
IC50 (MZ1-PC; Homo sapiens, MZ1-PC): > 1000 nM
IC50 (MZ1-PC; mz1-pc): > 1000 nM
IC50 (MZ2-MEL; mz2-mel): 176 nM and > 1000 nM
IC50 (NB6; nb6): > 1000 nM
IC50 (NB69; nb69): > 1000 nM
IC50 (NCI-H1155; nci-h1155): > 1000 nM
IC50 (NCI-H1299): > 1000 nM
IC50 (NCI-H1581; Homo sapiens, NCI-H1581): > 1000 nM
IC50 (NCI-H1581; nci-h1581): > 1000 nM
IC50 (NCI-H1838; nci-h1838): > 1000 nM
IC50 (NH-12; nh-12): > 1000 nM
IC50 (NMC-G1; nmc-g1): > 1000 nM
IC50 (NOS-1; nos-1): > 1000 nM
IC50 (NTERA-2-cl-D1; ntera-2-cl-d1): 57.7 nM and 426 nM
IC50 (OCI-AML2; oci-aml2): > 1000 nM
IC50 (ONS-76; ons-76): 129 nM and 899 nM
IC50 (RH-1; rh-1): > 1000 nM
IC50 (Ramos-2G6-4C10; Homo sapiens, Ramos-2G6-4C10): > 1000 nM
IC50 (Ramos-2G6-4C10; ramos-2g6-4c10): > 1000 nM
IC50 (SBC-1; Homo sapiens, SBC-1): > 1000 nM
IC50 (SBC-1; sbc-1): > 1000 nM
IC50 (SF-268; sf-268): 656 nM and > 1000 nM
IC50 (SK-NEP-1; sk-nep-1): > 1000 nM
IC50 (A101D; a101d): 32.8 nM and 301 nM
IC50 (BV-173; bv-173): > 1000 nM
IC50 (TE-10; te-10): 964 nM and > 1000 nM
IC50 (TE-6; te-6): > 1000 nM
IC50 (TE-9; te-9): 610 nM and > 1000 nM
IC50 (TGW; tgw): > 1000 nM
IC50 (UACC-257; uacc-257): 119 nM and > 1000 nM
IC50 (no-11): > 1000 nM
IC50 (COLO-668; Homo sapiens, COLO-668): > 1000 nM
IC50 (COLO-668; colo-668): > 1000 nM

Cc1ccc(C(=O)Nc2ccc(CN3CCN(C)CC3)c(C(F)(F)F)c2)cc1C#Cc1cnc2cccnn12 [PONATINIB]
IC50 (COLO-800; Homo sapiens, COLO-800): > 512 nM
IC50 (COLO-824; Homo sapiens, COLO-824): > 512 nM
IC50 (CTB-1; Homo sapiens, CTB-1): 173 nM
IC50 (CW-2; Homo sapiens, CW-2): > 512 nM
IC50 (DB; Homo sapiens, DB): > 512 nM
IC50 (DMS-114; Homo sapiens, DMS-114): > 512 nM
IC50 (DOHH-2; Homo sapiens, DOHH-2): 48 nM
IC50 (ES7; Homo sapiens, ES7): > 512 nM
IC50 (EW-1; Homo sapiens, EW-1): > 512 nM
IC50 (GI-1; Homo sapiens, GI-1): > 512 nM
IC50 (GOTO; Homo sapiens, GOTO): > 512 nM
IC50 (GR-ST; Homo sapiens, GR-ST): > 512 nM
IC50 (HT; Homo sapiens, HT): > 512 nM
IC50 (IST-MES1; Homo sapiens, IST-MES1): 268 nM
IC50 (K5; Homo sapiens, K5): > 512 nM
IC50 (KINGS-1; Homo sapiens, KINGS-1): > 512 nM
IC50 (KNS-81-FD; Homo sapiens, KNS-81-FD): > 512 nM
IC50 (LB2518-MEL): > 512 nM
IC50 (ML-2; Homo sapiens, ML-2): > 512 nM
IC50 (MOLT-16; Homo sapiens, MOLT-16): > 512 nM
IC50 (MSTO-211H; Homo sapiens, MSTO-211H): > 512 nM
IC50 (MZ1-PC; Homo sapiens, MZ1-PC): 113 nM
IC50 (MZ2-MEL; Homo sapiens, MZ2-MEL): > 512 nM
IC50 (NB6; Homo sapiens, NB6): > 512 nM
IC50 (NB69; Homo sapiens, NB69): > 512 nM
IC50 (NCI-H1155; Homo sapiens, NCI-H1155): > 512 nM
IC50 (NCI-H1299): > 512 nM
IC50 (NCI-H1581; Homo sapiens, NCI-H1581): > 512 nM
IC50 (NCI-H1838; Homo sapiens, NCI-H1838): > 512 nM
IC50 (NH-12; Homo sapiens, NH-12): > 512 nM
IC50 (NMC-G1; Homo sapiens, NMC-G1): > 512 nM
IC50 (NOS-1; Homo sapiens, NOS-1): 244 nM
IC50 (NTERA-2-cl-D1; Homo sapiens, NTERA-2-cl-D1): > 512 nM
IC50 (OCI-AML2; Homo sapiens, OCI-AML2): > 512 nM
IC50 (ONS-76; Homo sapiens, ONS-76): > 512 nM
IC50 (RH-1; Homo sapiens, RH-1): > 512 nM
IC50 (Ramos-2G6-4C10; Homo sapiens, Ramos-2G6-4C10): > 512 nM
IC50 (SBC-1; Homo sapiens, SBC-1): > 512 nM
IC50 (SF-268; Homo sapiens, SF-268): 449 nM
IC50 (SK-NEP-1; Homo sapiens, SK-NEP-1): > 512 nM
IC50 (A101D; Homo sapiens, A101D): > 512 nM
IC50 (BV-173; Homo sapiens, BV-173): > 512 nM
IC50 (TE-10; Homo sapiens, TE-10): > 512 nM
IC50 (TE-6; Homo sapiens, TE-6): > 512 nM
IC50 (TE-9; Homo sapiens, TE-9): > 512 nM
IC50 (TGW; Homo sapiens, TGW): > 512 nM
IC50 (UACC-257; Homo sapiens, UACC-257): > 512 nM
IC50 (no-11; Homo sapiens): > 512 nM
IC50 (COLO-668; Homo sapiens, COLO-668): > 512 nM
